{
  "source": "patent US12091431B2",
  "about": "“Crystals” (AEROMICS, INC., priority 2016, dated 2024)",
  "type_in_all_cases": "physicochemical",
  "key": {"[1]": {"test": "Vacuum drying attempts of Form A", "description": "Several attempts to dry Form A are tried. Rigorous conditions are initially selected due to the high temperature range at which the TGA weight loss is observed (above 90° C.). Drying under vacuum at 80° C. for 1 day results in brown solids stuck to the vial.\nA drying attempt under milder conditions is attempted. The experiment begins by drying under vacuum at ambient temperature. […] Minor weight loss is noted after 6 hours at 63-65° C., so the sample is held in the vacuum oven at this temperature for 1 day, resulting in 11% gravimetric weight loss."}, "[2]": {"test": "Dynamic vapor sorption (DVS)", "conditions": "for XRPD of the post-DVS material (form change): after DVS sorption/desorption cycle; for hygroscopicity, weight gain from 5-95% RH: summary statement; for weight change upon desorption: DVS desorption after sorption to 95% RH", "description": "Dynamic vapor sorption (DVS) data are collected on a VTI SGA-100 Vapor Sorption Analyzer. NaCl and PVP are used as calibration standards. Samples are not dried prior to analysis. Sorption and desorption data are collected over a range from 5% to 95% relative humidity (RH) at 10% RH increments under a nitrogen purge. The equilibrium criterion used for analysis is less than 0.0100% weight change in 5 minutes with a maximum equilibration time of 3 hours. Data are not corrected for the initial moisture content of the samples."}, "[3]": {"test": "Stressing at elevated relative humidity", "conditions": "~97% RH for 7 days", "description": "The kinetic and thermodynamic hygroscopicity of Form A is assessed by DVS and stressing at elevated RH, respectively."}, "[4]": {"test": "Slurry in water at room temperature, form by XRPD", "description": "The slurry is repeated for 19 hours to gauge how quickly the conversion occurs and results again in Form N, indicating form conversion within 19 hours (starting material is the product from this example and from Example 21)."}, "Solubility in water": {"test": "Solubility in water"}, "[5]": {"test": "Hydrolysis in the solid state", "conditions": "reversion to N-[3,5-bis(trifluoromethyl)phenyl]-5-chloro-2-hydroxybenzamide"}},
  "note": "Like-named read-outs stand apart in the source and are kept apart here.",
  "data": [
    {"compound": "O=C(Nc1cc(C(F)(F)F)cc(C(F)(F)F)c1)c1cc(Cl)ccc1OP(=O)(O)O", "note": "[Form A, 2-{[3,5-bis(trifluoromethyl)phenyl]carbamoyl}-4-chlorophenyl dihydrogen phosphate ethyl acetate solvate]", "values": [
      {"measurement": "gravimetric weight loss on drying", "setting": "[1]; under vacuum at 80° C. for 1 day", "result": 30, "unit": "%"},
      {"measurement": "gravimetric weight loss on drying", "setting": "[1]; vacuum oven at 63-65° C. for 1 day", "result": 11, "unit": "%"},
      {"measurement": "outcome of vacuum drying at elevated temperature", "setting": "[1]; vacuum, elevated temperature", "result": "decomposition and collapse of the crystalline structure"},
      {"measurement": "weight loss upon desorption between 95% and 5% RH", "setting": "[2]; DVS desorption, 95% to 5% RH", "result": 8.73, "unit": "%"},
      {"measurement": "moisture uptake between 5% and 95% RH", "setting": "[2]; DVS sorption, 5% to 95% RH", "result": 6.07, "unit": "wt %"},
      {"measurement": "weight gain 5%-75% RH", "setting": "[2]; DVS sorption, 5%-75% RH", "result": 1.65, "unit": "%"},
      {"measurement": "weight gain 75%-95% RH", "setting": "[2]; DVS sorption, 75%-95% RH", "result": 4.42, "unit": "%"},
      {"measurement": "weight loss upon equilibration at 5% RH", "setting": "[2]; DVS, initial equilibration at 5% RH", "result": 0.76, "unit": "wt %"},
      {"measurement": "XRPD of the post-DVS material (form change)", "setting": "[2]", "result": "change to a disordered unknown material"},
      {"measurement": "hygroscopicity, weight gain from 5-95% RH", "setting": "[2]; DVS", "result": "~6", "unit": "%"},
      {"measurement": "form after stressing at elevated relative humidity", "setting": "[3]", "result": "form change to a mixture of materials with a minor Form N (hydrate) component"}
    ]},
    {"compound": "O=C(Nc1cc(C(F)(F)F)cc(C(F)(F)F)c1)c1cc(Cl)ccc1OP(=O)(O)O", "note": "[Form B, 2-{[3,5-bis(trifluoromethyl)phenyl]carbamoyl}-4-chlorophenyl dihydrogen phosphate]", "values": [
      {"measurement": "weight change upon desorption", "setting": "[2]", "result": "All of this weight is lost"},
      {"measurement": "weight gain upon sorption from 5% to 95% relative humidity", "setting": "[2]; DVS sorption, 5% to 95% RH", "result": 0.6, "unit": "weight %"},
      {"measurement": "weight loss at 5% relative humidity", "setting": "[2]; DVS, 5% RH", "result": 0.04, "unit": "weight %"},
      {"measurement": "XRPD of the post-DVS material (form change)", "setting": "[2]", "result": "no form change"},
      {"measurement": "hygroscopicity, weight gain from 5-95% RH", "setting": "[2]; DVS", "result": "~0.6", "unit": "%"},
      {"measurement": "time for form conversion to Form N in water slurry", "setting": "[4]", "result": "≤ 19", "unit": "h"},
      {"measurement": "form after slurrying with water", "setting": "[4]; 7 days, vacuum filtered", "result": "converts to Form N"},
      {"measurement": "form after stressing at elevated relative humidity", "setting": "[3]", "result": "partial conversion to Form N"}
    ]},
    {"compound": "O=C(Nc1cc(C(F)(F)F)cc(C(F)(F)F)c1)c1cc(Cl)ccc1OP(=O)(O)O", "note": "[Form N, 2-{[3,5-bis(trifluoromethyl)phenyl]carbamoyl}-4-chlorophenyl dihydrogen phosphate hydrate]", "values": [
      {"measurement": "weight change upon desorption", "setting": "[2]", "result": "All of this weight is lost"},
      {"measurement": "weight gain upon sorption from 5% to 95% relative humidity", "setting": "[2]; DVS sorption, 5% to 95% RH, phosphate hydrate", "result": 3, "unit": "weight %"},
      {"measurement": "weight loss upon equilibration to 5% relative humidity", "setting": "[2]; DVS, initial equilibration to 5% RH, residual water likely", "result": 30, "unit": "%"},
      {"measurement": "XRPD of the post-DVS material (form change)", "setting": "[2]; phosphate hydrate", "result": "no form change"},
      {"measurement": "hygroscopicity, weight gain from 5-95% RH", "setting": "[2]; DVS, phosphate hydrate", "result": "~3", "unit": "%"}
    ]},
    {"compound": "O=C(Nc1cc(C(F)(F)F)cc(C(F)(F)F)c1)c1cc(Cl)ccc1O", "note": "[N-[3,5-bis(trifluoromethyl)phenyl]-5-chloro-2-hydroxybenzamide]", "values": [
      {"measurement": "solubility", "setting": "Solubility in water; water, read-out: solubility in water", "result": 0.003, "unit": "mg/mL"}
    ]},
    {"compound": "NCCO.NCCO.O=C(Nc1cc(C(F)(F)F)cc(C(F)(F)F)c1)c1cc(Cl)ccc1OP(=O)(O)O", "note": "[bis ethanolamine salt, 2-((3,5-bis(trifluoromethyl)phenyl)carbamoyl)-4-chlorophenyl phosphate bis ethanolamine salt]", "values": [
      {"measurement": "hydrolysis in the solid state", "setting": "[5]", "result": 1, "unit": "% per day"}
    ]},
    {"compound": "O=C(Nc1cc(C(F)(F)F)cc(C(F)(F)F)c1)c1cc(Cl)ccc1OP(=O)([O-])[O-].[Na+].[Na+]", "note": "[bis sodium salt, 2-((3,5-bis(trifluoromethyl)phenyl)carbamoyl)-4-chlorophenyl phosphate bis sodium salt]", "values": [
      {"measurement": "solubility", "setting": "Solubility in water; pH 8.5 water, pH 8.5, aqueous buffer, read-out: solubility in pH 8.5 water", "result": 20, "unit": "mg/mL"},
      {"measurement": "hydrolysis in the solid state", "setting": "[5]", "result": 1, "unit": "% per day"}
    ]},
    {"compound": "O=C(Nc1cc(C(F)(F)F)cc(C(F)(F)F)c1)c1cc(Cl)ccc1OP(=O)([O-])O.[Na+]", "note": "[mono sodium salt, 2-((3,5-bis(trifluoromethyl)phenyl)carbamoyl)-4-chlorophenyl hydrogen phosphate mono sodium salt]", "values": [
      {"measurement": "hydrolysis in the solid state", "setting": "[5]", "result": 1, "unit": "% per day"}
    ]}
  ]
}
